Assay results as given in US9775915B2, “Trioxacarcins, trioxacarcin-antibody conjugates, and uses thereof” (President and Fellows of Harvard College, priority 2012, dated 2017).
“Also recorded” adds a separate entry of the source.

Experiments:
[1] = tested on: H460, T-47D, HEK293, N87, MDA-MB-361/DYT2, HT-29, HL-60 and HEL 92.1.7 cells; test: Growth inhibition (GI50) comparison of trioxacarcins, FIG. 10 cell line panel; format: cell-based; details: structure-activity comments on FIG. 10
Protocol: Cell Proliferation Assay. A suspension of H460 cells (3000 cells/well) in growth medium was seeded onto a 96-well plate. The 96-well plate was incubated for 24 h at 37° C. Stock solutions of each compound were diluted serially and the resulting solutions were administrated to cells to achieve final concentrations of 110 pM to 250 nM (trioxacarcin A) or 1.1 nM to 2.5 μM (all other compounds). After incubating at 37° C. for 72 h, 20 μL of resazurin solution (Promega CellTiter-Blue® Cell Viability Assay) was added to each well. After incubating at 37° C. for 2.0 h, the fluorescence (560 nm excitation/590 nm emission) was recorded using a microplate reader (SpectraMax PLUS^384) as a measure of viable cells. Percent growth inhibition was calculated for each well, based upon the following formula: Percent growth inhibition=100×(S−B0)/(Bt−B0); where S is the sample fluorescence, Bt is the average fluorescence for a vehicle-treated population of cells at the completion of the assay, and B0 is the average fluorescence for an untreated population of cells at the beginning of the assay. The average percent inhibition at each concentration was plotted against log(concentration), and a curve fit was generated using a four-parameter logistic equation. GI50 values were computed to reflect the concentrations at which the resulting curves pass through 50% inhibition. […]

H460 cells = test: Cell proliferation assay (CellTiter-Blue resazurin), H460 cells; format: cell-based; details: 72 h incubation
Protocol: H460 cells were purchased from American Type Culture Collection (ATCC).
A suspension of H460 cells (3000 cells/well) in growth medium was seeded onto a 96-well plate. The 96-well plate was incubated for 24 h at 37° C. […] After incubating at 37° C. for 72 h, 20 μL of resazurin solution (Promega CellTiter-Blue® Cell Viability Assay) was added to each well. […] Percent growth inhibition was calculated for each well, based upon the following formula: Percent growth inhibition=100×(S−B0)/(Bt−B0); where S is the sample fluorescence, Bt is the average fluorescence for a vehicle-treated population of cells at the completion of the assay, and B0 is the average fluorescence for an untreated population of cells at the beginning of the assay. The average percent inhibition at each concentration was plotted against log(concentration), and a curve fit was generated using a four-parameter logistic equation.

[2] = Chemical stability (base, aqueous or alcoholic solvents); format: physicochemical; details: basic conditions in aqueous or alcoholic solvents
[3] = tested on: lung (LXFL 529L, H-460), mammary (MCF-7), and CNS (SF-268) cancer cell lines; details: human cancer cell lines; Maskey et al. 2004; cited from earlier work

For `COc1c2c(c(O)c3c4c(c(C)cc13)[C@@H]1O[C@@]3(C(OC)OC)O[C@@H]1[C@@](O)(O4)[C@@]31CO1)C(=O)[C@@H](O)C[C@@H]2O[C@H]1C[C@@](C)(O)[C@H](OC(C)=O)[C@H](C)O1` [DC-45-A1], which “antiproliferative activity (in words, FIG. 10)” value [1] is on record?
Its value is “highly potent antiproliferative agents”.

Which results are given for `COc1c2c(c(O)c3c4c(c(C)cc13)[C@@H]1O[C@@]3(C(OC)OC)O[C@@H]1[C@@](O[C@H]1C[C@@H](O)[C@@](O)(C(C)=O)[C@H](C)O1)(O4)[C@@]31CO1)C(=O)[C@@H](O)C[C@@H]2O[C@H]1C[C@@](C)(O)[C@H](OC(C)=O)[C@H](C)O1` [trioxacarcin A]?
GI50 (H460 cells): 0.85 ± 0.36 nM; stability under basic conditions [2]: unstable; IC70 [3]: subnanomolar; also recorded: subnanmolar
